Where two headings read alike, the source gives them in different places.
What was measured:
[1] = ether bond, 20-membered ring, PPh3/DIAD, THF
[2] = ether bond, PPh3/DIAD, THF
[3] = from COC(=O)[C@@H](OC(C)(C)C)c1c(C)c(C)c2nc(-c3cccc(-c4ccc(C)cc4O)c3)cn2c1N1CCC(C)(OCCOC[C@@H](C)O)CC1, 20.0 mM, 0.5 h
[4] = from COC(=O)[C@@H](OC(C)(C)C)c1c(C)cc2nc(-c3cccc(-c4c(O)cc(C)cc4F)c3)cn2c1N1CCC(C)(OCCOC[C@@H](C)O)CC1, 42.7 mM, 0.5 h, 2 steps
[5] = from COC(=O)[C@@H](OC(C)(C)C)c1c(C)cc2nc(-c3cccc(-c4ccc(C)cc4O)c3)cn2c1N1CCC(C)(OCCOC[C@@H](C)O)CC1, 1.41 mM, 1.0 h
[6] = from COC(=O)[C@@H](OC(C)(C)C)c1c(C)cc2nc(-c3cccc(-c4cc(F)c(F)cc4O)c3)cn2c1N1CCC(C)(OCCOC[C@@H](C)O)CC1, 10.0 mM, 0.5 h
[7] = from COC(=O)[C@@H](OC(C)(C)C)c1c(C)cc2nc(-c3cccc(-c4cc(C)ccc4O)c3)cn2c1N1CCC(C)(OCCOC[C@@H](C)O)CC1, 39.2 mM, 18.0 h, 2 steps

COC(=O)[C@@H](OC(C)(C)C)c1c(C)c(C)c2nc3cn2c1N1CCC(C)(CC1)OCCOC[C@H](C)Oc1cc(C)ccc1-c1cccc-3c1
ring closure, isolated yield [1, 3]: 47%
ring closure, yield of all isomers [2, 3]: 47%

COC(=O)[C@@H](OC(C)(C)C)c1c(C)cc2nc3cn2c1N1CCC(C)(CC1)OCCOC[C@H](C)Oc1cc(C)cc(F)c1-c1cccc-3c1
ring closure, isolated yield [1, 4]: 6%
ring closure, yield of all isomers [2, 4]: 6%

COC(=O)[C@@H](OC(C)(C)C)c1c(C)cc2nc3cn2c1N1CCC(C)(CC1)OCCOC[C@H](C)Oc1cc(C)ccc1-c1cccc-3c1
ring closure, isolated yield [1, 5]: 65%
ring closure, yield of all isomers [2, 5]: 65%

COC(=O)[C@@H](OC(C)(C)C)c1c(C)cc2nc3cn2c1N1CCC(C)(CC1)OCCOC[C@H](C)Oc1cc(F)c(F)cc1-c1cccc-3c1
ring closure, isolated yield [1, 6]: 95%
ring closure, yield of all isomers [2, 6]: 95%

COC(=O)[C@@H](OC(C)(C)C)c1c(C)cc2nc3cn2c1N1CCC(C)(CC1)OCCOC[C@H](C)Oc1ccc(C)cc1-c1cccc-3c1
ring closure, isolated yield [1, 7]: 65%
ring closure, yield of all isomers [2, 7]: 65%
